# Data taken from patent publication US5451397A, “Bile acid sequestrant” (priority 1992, dated 1995).
# Test system: Chinese hamster ovary (CHO) cell cultures
# Type: cell-based
# Protocol: A suspension of particles of the sequestrant in deionized water was prepared. The suspension was serially diluted into serumless culture medium. The most concentrated suspension tested was 1000 micrograms sequestrant per milliliter suspension (μg/ml). Exponentially growing Chinese hamster ovary (CHO) cell cultures were treated with the sequestrant dilutions for three hours. The cultures were gently rocked on a rocker platform during treatment in an attempt to maintain a uniform suspension over the cells for the entire treatment period. Negative controls i.e., CHO cell cultures treated with serumless culture medium, and solvent controls, i.e., CHO cell cultures treated with 1% deionized water in serumless culture medium, were included. Treatment was terminated by washing the cultures twice with Dulbecco's phosphate buffered saline and cells were allowed to recover in McCoy's 5A medium containing 10% fetal bovine serum for 0, 5 or 21 hours, i.e., 3, 8 or 24 hours from the beginning of treatment. […] The harvested cells were counted by Coulter counter to determine relative reductions in cell numbers. At selected doses, Trypan blue exclusion counts were conducted using a hemacytometer to determine cell viability to control for the possibility that some dead cells may have been counted with the Coulter counter. […]
substance,measurement,value
poly(dimethylaminopropylmethacrylamide) [Comparative Example C1],ED50 (dosage effective to kill 50% of the cells),10.0 µg/mL
